Consider 37 compounds from patent publication US8653263B2 (Janssen Pharmaceutica, priority 2009, dated 2014).

In this test the target is human orexin-2 receptor (Homo sapiens (Human), UniProt O43614). The test is described as follows: Human orexin 2 receptor radioligand binding ([3H]-EMPA competition). The conditions noted are these: HEK293 cells stably expressing human orexin-2 receptor; [3H]-EMPA 5 nM final; apparent Ki=IC50/(1+C/Kd), Kd=2 nM; read-out: OR 2 Ki.
human orexin-2 receptor, sequence (O43614 whole entry): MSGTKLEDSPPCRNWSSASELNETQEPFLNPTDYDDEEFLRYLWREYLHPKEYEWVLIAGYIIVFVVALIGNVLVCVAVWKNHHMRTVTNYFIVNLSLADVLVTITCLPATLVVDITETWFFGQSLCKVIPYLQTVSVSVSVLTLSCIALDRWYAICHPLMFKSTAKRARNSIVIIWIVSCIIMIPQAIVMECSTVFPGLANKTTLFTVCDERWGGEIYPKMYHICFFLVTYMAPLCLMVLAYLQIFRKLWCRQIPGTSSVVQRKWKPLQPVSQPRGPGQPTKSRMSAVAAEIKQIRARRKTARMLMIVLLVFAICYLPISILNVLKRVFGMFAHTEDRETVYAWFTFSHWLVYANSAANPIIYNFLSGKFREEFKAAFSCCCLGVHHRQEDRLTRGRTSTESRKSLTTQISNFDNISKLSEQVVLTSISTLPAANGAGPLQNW
Take `O=C(c1ccccc1-c1ccc(F)cc1)N1CC2CN(c3cnc4ccccc4n3)CC2C1` (stereo not shown) [Example 28, 2-{5-[(4′-Fluorobiphenyl-2-yl)carbonyl]hexahydropyrrolo[3,4-c]pyrrol-2(1H)-yl}quinoxaline]: the Ki is 575 nM. The result for `O=C(c1ccccc1-c1cccc(F)c1)N1CC2CN(c3cnc4ccccc4n3)CC2C1` (stereo not shown) [Example 29, 2-{5-[(3′-Fluorobiphenyl-2-yl)carbonyl]hexahydropyrrolo[3,4-c]pyrrol-2(1H)-yl}quinoxaline] reads 135 nM; that for `Cc1ccccc1C(=O)N1CC2CN(c3cnc4ccccc4n3)CC2C1` (stereo not shown) [Example 30, 2-{5-[(2-Methylphenyl)carbonyl]hexahydropyrrolo[3,4-c]pyrrol-2(1H)-yl}quinoxaline], 790 nM; that for `O=C(c1ccccc1-c1ccccc1)N1CC2CN(c3nccc(-c4ccco4)n3)CC2C1` (stereo not shown) [Example 31, 2-(Biphenyl-2-ylcarbonyl)-5-(4-furan-2-ylpyrimidin-2-yl)octahydropyrrolo[3,4-c]pyrrole], 425 nM.

For `Cc1ccnc(N2CC3CN(C(=O)c4ccccc4-c4cccs4)CC3C2)n1` (stereo not shown) [Example 32, 2-(4-Methylpyrimidin-2-yl)-5-[(2-thiophen-2-ylphenyl)carbonyl]octahydro-pyrrolo[3,4-c]pyrrole], the Ki was 47 nM. The result for `O=C(c1ccccc1-c1cccs1)N1CC2CN(c3ccc4ccccc4n3)CC2C1` (stereo not shown) [Example 33, 2-{5-[(2-Thiophen-2-ylphenyl)carbonyl]hexahydropyrrolo[3,4-c]pyrrol-2(1H)-yl}quinoline] reads 250 nM; that for `O=C(c1ccccc1-c1cccs1)N1CC2CN(c3nccc(-c4ccco4)n3)CC2C1` (stereo not shown) [Example 34, 2-(4-Furan-2-ylpyrimidin-2-yl)-5-[(2-thiophen-2-ylphenyl)carbonyl]octahydro-pyrrolo[3,4-c]pyrrole], 79 nM. The result for `CCc1ccccc1C(=O)N1CC2CN(c3cnc4ccccc4n3)CC2C1` (stereo not shown) [Example 35, 2-{5-[(2-Ethylphenyl)carbonyl]hexahydropyrrolo[3,4-c]pyrrol-2(1H)-yl}quinoxaline] reads 722 nM; that for `O=C(c1ccccc1-c1cccs1)N1CC2CN(c3nccc(-c4cccs4)n3)CC2C1` (stereo not shown) [Example 37, 2-[(2-Thiophen-2-ylphenyl)carbonyl]-5-(4-thiophen-2-ylpyrimidin-2-yl)octahydro-pyrrolo[3,4-c]pyrrole], 181 nM; that for `O=C(c1ccccc1-c1ccccc1)N1CC2CN(c3nccc(-c4cccs4)n3)CC2C1` (stereo not shown) [Example 38, 2-(Biphenyl-2-ylcarbonyl)-5-(4-thiophen-2-ylpyrimidin-2-yl)octahydropyrrolo[3,4-c]pyrrole], 515 nM. The result for `Cc1cc(C)nc(N2CC3CN(C(=O)c4ccccc4-c4nccn4C)CC3C2)n1` (stereo not shown) [Example 39, [5-(4,6-Dimethyl-pyrimidin-2-yl)-hexahydro-pyrrolo[3,4-c]pyrrol-2-yl]-[2-(1-methyl-1H-imidazol-2-yl)-phenyl]-methanone] reads 9000 nM; that for `O=C(c1ccccc1-c1cccc(Cl)c1)N1CC2CN(c3cnc4ccccc4n3)CC2C1` (stereo not shown) [Example 41, 2-{5-[(3′-Chlorobiphenyl-2-yl)carbonyl]hexahydropyrrolo[3,4-c]pyrrol-2(1H)-yl}quinoxaline], 356 nM; that for `O=C(c1ccccc1Br)N1CC2CN(c3cnc4ccccc4n3)CC2C1` (stereo not shown) [Example 42, 2-{5-[(2-Bromophenyl)carbonyl]hexahydropyrrolo[3,4-c]pyrrol-2(1H)-yl}quinoxaline], 616 nM. Take `Cc1cc(C)nc(N2CC3CN(C(=O)c4ccccc4-c4cccs4)CC3C2)n1` (stereo not shown) [Example 43, 2-(4,6-Dimethylpyrimidin-2-yl)-5-[(2-thiophen-2-ylphenyl)carbonyl]octahydro-pyrrolo[3,4-c]pyrrole]: the Ki was determined as 7 nM. The figure for `Cc1cc(C)nc(N2CC3CN(C(=O)c4ccccc4-c4ccccc4)CC3C2)n1` (stereo not shown) [Example 44, 2-(Biphenyl-2-ylcarbonyl)-5-(4,6-dimethylpyrimidin-2-yl)octahydropyrrolo[3,4-c]pyrrole] is 142 nM; for `COc1ccnc(N2CC3CN(C(=O)c4ccccc4-c4cccs4)CC3C2)n1` (stereo not shown) [Example 45, 2-(4-Methoxypyrimidin-2-yl)-5-[(2-thiophen-2-ylphenyl)carbonyl]octahydro-pyrrolo[3,4-c]pyrrole] it is 36 nM. On to `O=C(c1ccccc1-c1cccs1)N1CC2CN(c3nc4ccc(F)cc4s3)CC2C1` (stereo not shown) [Example 46, 6-Fluoro-2-{5-[(2-thiophen-2-ylphenyl)carbonyl]hexahydropyrrolo[3,4-c]pyrrol-2(1H)-yl}-1,3-benzothiazole], for which the Ki is 132 nM. The result for `Cc1cc(C)nc(N2CC3CN(C(=O)c4c(C)ccc5ccccc45)CC3C2)n1` (stereo not shown) [Example 47, 2-(4,6-Dimethylpyrimidin-2-yl)-5-[(2-methylnaphthalen-1-yl)carbonyl]octahydro-pyrrolo[3,4-c]pyrrole] reads 38 nM; that for `Cc1ccnc(N2CC3CN(C(=O)c4ccccc4-c4cccc(F)c4)CC3C2)n1` (stereo not shown) [Example 48, 2-[(3′-Fluorobiphenyl-2-yl)carbonyl]-5-(4-methylpyrimidin-2-yl)octahydro-pyrrolo[3,4-c]pyrrole], 716 nM.

In the case of `COc1ccnc(N2CC3CN(C(=O)c4c(C)ccc5ccccc45)CC3C2)n1` (stereo not shown) [Example 49, 2-(4-Methoxypyrimidin-2-yl)-5-[(2-methylnaphthalen-1-yl)carbonyl]octahydro-pyrrolo[3,4-c]pyrrole], the Ki amounted to 78 nM. As for `Cc1ccnc(N2CC3CN(C(=O)c4c(C)ccc5ccccc45)CC3C2)n1` (stereo not shown) [Example 50, 2-[(2-Methylnaphthalen-1-yl)carbonyl]-5-(4-methylpyrimidin-2-yl)octahydro-pyrrolo[3,4-c]pyrrole], the Ki is 215 nM.

As to `COc1ccnc(N2CC3CN(C(=O)c4ccccc4-c4cccc(F)c4)CC3C2)n1` (stereo not shown) [Example 51, 2-[(3′-Fluorobiphenyl-2-yl)carbonyl]-5-(4-methoxypyrimidin-2-yl)octahydro-pyrrolo[3,4-c]pyrrole], the Ki amounted to 644 nM. The figure for `Cc1cc(C)nc(N2CC3CN(C(=O)c4ccccc4-c4cccc(F)c4)CC3C2)n1` (stereo not shown) [Example 52, 2-(4,6-Dimethylpyrimidin-2-yl)-5-[(3′-fluorobiphenyl-2-yl)carbonyl]octahydro-pyrrolo[3,4-c]pyrrole] is 65 nM; for `Cc1cc(C)nc(N2CC3CN(C(=O)c4ccccc4F)CC3C2)n1` (stereo not shown) [Example 53, [5-(4,6-Dimethyl-pyrimidin-2-yl)-hexahydro-pyrrolo[3,4-c]pyrrol-2-yl]-(2-fluoro-phenyl)-methanone] it is 5000 nM.

Consider `COc1ccnc(N2CC3CN(C(=O)c4ccccc4-c4ccc(C)cc4)CC3C2)n1` (stereo not shown) [Example 54, 2-(4-Methoxypyrimidin-2-yl)-5-[(4′-methylbiphenyl-2-yl)carbonyl]octahydro-pyrrolo[3,4-c]pyrrole], for which the Ki amounted to 769 nM. The result for `COc1ccnc(N2CC3CN(C(=O)c4ccccc4-c4cccc(Cl)c4)CC3C2)n1` (stereo not shown) [Example 55, 2-[(3′-Chlorobiphenyl-2-yl)carbonyl]-5-(4-methoxypyrimidin-2-yl)octahydro-pyrrolo[3,4-c]pyrrole] reads 744 nM. The result for `CCOc1ccc2ccccc2c1C(=O)N1CC2CN(c3nccc(OC)n3)CC2C1` (stereo not shown) [Example 56, 2-[(2-Ethoxynaphthalen-1-yl)carbonyl]-5-(4-methoxypyrimidin-2-yl)octahydropyrrolo[3,4-c]pyrrole] reads 80 nM.

For `COc1ccnc(N2CC3CN(C(=O)c4ccc(F)c5ccccc45)CC3C2)n1` (stereo not shown) [Example 57, 2-[(4-Fluoronaphthalen-1-yl)carbonyl]-5-(4-methoxypyrimidin-2-yl)octahydro-pyrrolo[3,4-c]pyrrole], the Ki was found to be 167 nM. The result for `COc1ccnc(N2CC3CN(C(=O)c4cccc5ccccc45)CC3C2)n1` (stereo not shown) [Example 58, 2-(4-Methoxypyrimidin-2-yl)-5-(naphthalen-1-ylcarbonyl)octahydropyrrolo[3,4-c]pyrrole] reads 227 nM. Turning to `CCOc1ccccc1C(=O)N1CC2CN(c3nccc(OC)n3)CC2C1` (stereo not shown) [Example 59, 2-[(2-Ethoxyphenyl)carbonyl]-5-(4-methoxypyrimidin-2-yl)octahydropyrrolo[3,4-c]pyrrole], the Ki is 778 nM. The result for `COc1ccnc(N2CC3CN(C(=O)c4c(OC)ccc5ccccc45)CC3C2)n1` (stereo not shown) [Example 60, 2-[(2-Methoxynaphthalen-1-yl)carbonyl]-5-(4-methoxypyrimidin-2-yl)octahydropyrrolo[3,4-c]pyrrole] reads 173 nM; that for `O=C(c1ccccc1-c1ccccc1)N1CC2CN(c3nccc(-c4cn[nH]c4)n3)CC2C1` (stereo not shown) [Example 61, 2-(Biphenyl-2-ylcarbonyl)-5-[4-(1H-pyrazol-4-yl)pyrimidin-2-yl]octahydro-pyrrolo[3,4-c]pyrrole], 224 nM. The figure for `O=C(c1ccccc1-c1cccs1)N1CC2CN(c3nccc(-c4cn[nH]c4)n3)CC2C1` (stereo not shown) [Example 62, 2-[4-(1H-Pyrazol-4-yl)pyrimidin-2-yl]-5-[(2-thiophen-2-ylphenyl)carbonyl]octahydro-pyrrolo[3,4-c]pyrrole] is 42 nM; for `Cc1cnc(C)c(N2CC3CN(C(=O)c4ccccc4-c4cccs4)CC3C2)n1` (stereo not shown) [Example 63, 2-(3,6-Dimethylpyrazin-2-yl)-5-[(2-thiophen-2-ylphenyl)carbonyl]octahydro-pyrrolo[3,4-c]pyrrole] it is 44 nM; for `Cc1cnc(N2CC3CN(C(=O)c4ccccc4-c4ccccc4)CC3C2)c(C)n1` (stereo not shown) [Example 64, 2-(Biphenyl-2-ylcarbonyl)-5-(3,5-dimethylpyrazin-2-yl)octahydropyrrolo[3,4-c]pyrrole] it is 579 nM.

For `Cc1nc2ccccc2nc1N1CC2CN(C(=O)c3ccccc3-c3cccs3)CC2C1` (stereo not shown) [Example 65, 2-Methyl-3-{5-[(2-thiophen-2-ylphenyl)carbonyl]hexahydropyrrolo[3,4-c]pyrrol-2(1H)-yl}quinoxaline], the Ki turned out to be 228 nM. The figure for `Cc1nc2ccccc2nc1N1CC2CN(C(=O)c3ccccc3-c3ccccc3)CC2C1` (stereo not shown) [Example 66, 2-[5-(Biphenyl-2-ylcarbonyl)hexahydropyrrolo[3,4-c]pyrrol-2(1H)-yl]-3-methylquinoxaline] is 449 nM.
